Source: US10214544B2, “Imidazopyridazine and imidazothiadiazole compounds” (Universite de Montreal, priority 2015, dated 2019)

What follows are compounds tested against PAR4 (Homo sapiens (Human), UniProt Q96RI0) (assay: FLIPR assay in PAR4-expressing HEK293 cells (PAR4 antagonist activity)). Settings: inhibition of H-Ala-Phe(4-F)-Pro-Gly-Trp-Leu-Val-Lys-Asn-Gly-NH2-induced intracellular calcium mobilization.
Sequence of PAR4 (Q96RI0 18-385): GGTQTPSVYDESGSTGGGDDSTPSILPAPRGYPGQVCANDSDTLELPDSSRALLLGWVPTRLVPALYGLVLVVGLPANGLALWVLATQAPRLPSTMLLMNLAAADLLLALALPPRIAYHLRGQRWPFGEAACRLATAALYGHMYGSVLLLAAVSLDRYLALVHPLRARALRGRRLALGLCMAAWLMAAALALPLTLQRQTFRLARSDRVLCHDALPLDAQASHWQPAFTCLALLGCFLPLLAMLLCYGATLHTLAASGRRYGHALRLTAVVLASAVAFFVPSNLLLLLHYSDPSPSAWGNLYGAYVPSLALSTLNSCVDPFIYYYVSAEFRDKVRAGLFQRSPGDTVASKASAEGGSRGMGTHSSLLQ
Assay type: cell-based
Source text: The FLIPR assay is an exemplary in vitro assay for measuring the activity of the PAR4 antagonists of the present invention. In this assay, intracellular calcium mobilization is induced in PAR4 expressing cells by a PAR4 agonist and calcium mobilization is monitored. See, e.g., Example A.
HEK293 cells stably expressing PAR4 were generated by a standard method of transfection of human PAR4 (F2R23) cDNA expression vector and selected based on PAR4 protein expression or mRNA expression. […] These cells also express endogenous PAR1 and can elicit calcium signal upon stimulation with PAR1 agonist peptide. Therefore, the same cells were also used to determine selectivity against PAR1 and agonist activity for both receptors. Cells from HEK293 PAR4 Clone 1.2A (BMS Arctic ID 383940) were propagated and used for calcium mobilization studies.
FLIPR-based calcium mobilization assay in HEK293 cells was used to measure PAR4 antagonism, agonism, and selectivity against PAR1. The activity of the PAR4 antagonists of the present invention were tested in PAR4 expressing cells by monitoring H-Ala-Phe(4-F)-[…]NH2-induced intracellular calcium mobilization. Counter screens for agonist activity and PAR1 antagonist activity were also performed. Briefly, PAR1/PAR4-expressing HEK293 cells were grown in DMEM (Life Technology, Grand Island, N.Y.) containing 10% heat-inactivated FBS, 1% Penicillin-Streptomycin, 10 μg/mL blasticidin, and 100 μg/mL Zeocin at 37° C. with 5% CO2. Cells were plated overnight prior to the experiment in a black 384-well Purecoat Amine clear bottom plate (Becton Dickinson Biosciences, San Jose, Calif.) at 10,000 cells/well in 30 μL growth medium and incubated in a humidified chamber at 37° C. with 5% CO2 overnight. Prior to compound addition, the cell medium was replaced with […] of 1× calcium and magnesium-containing Hank's Balanced Saline Solution (HBSS) (with 20 mM HEPES) and 1:1000 diluted fluorescent calcium indicator (Codex Biosolutions, Gaithersburg, Md.). After a 30 minute incubation period at 37° C. and a further 30 minute incubation and equilibration period at room temperature, 20 μL test compound (diluted in 1× HBSS buffer) was added at various concentrations at 0.17% dimethyl sulfoxide (DMSO) final concentration. Changes in fluorescence intensity were measured using a Functional Drug Screening System (FDSS, Hamamatsu, Japan) to determine agonist activities. The cells were then incubated for 30 minutes at room temperature followed by addition of 20 μL of agonist peptide for antagonist activity measurement. […] Compound potency was derived from 11-point concentration-response curves.
The following Table sets out results obtained employing various compounds of the invention tested in the FLIPR assay. As indicated above, the FLIPR assay, an in vitro assay, measures the PAR4 antagonist activity of compounds tested as described in Example A.
With `COc1cc(OCc2cccc(NC(=O)c3cc(Cl)cc(Cl)c3)c2)c2cc(-c3cn4nc(OC)sc4n3)oc2c1` [Example 19] the EC50 was 3.3 nM.
With `COC(=O)c1ccc(C(=O)Nc2cccc(COc3cc(OC)cc4oc(-c5cn6nc(OC)sc6n5)cc34)c2)cc1` [Example 34] the EC50 was 1.2 nM.
For `COc1cc(OCc2cccc(NC(=O)c3cnoc3-c3ccccc3)c2)c2cc(-c3cn4nc(OC)sc4n3)oc2c1` [Example 60], the EC50 was 2.9 nM.
With `COc1nn2cc(-c3cc4c(OCc5cccc(NC(=O)c6ccccc6)c5)cccc4o3)nc2s1` [Example 52] the EC50 was 0.41 nM.
Work on `COc1cc(OCc2cccc(NC(=O)c3cc(F)cc(OC(F)(F)F)c3)c2)c2cc(-c3cn4nc(OC)sc4n3)oc2c1` [Example 76] yielded an EC50 of 2.5 nM.
`CCCc1ccc(C(=O)Nc2cccc(COc3cc(OC)cc4oc(-c5cn6nc(OC)sc6n5)cc34)c2)cc1` [Example 31] showed an EC50 of 1.3 nM.
With `COc1cc(OCc2cccc(NC(=O)c3sc(C)nc3C)c2)c2cc(-c3cn4nc(OC)sc4n3)oc2c1` [Example 50] the EC50 was 7.4 nM.
Work on `COc1cc(OCc2ccc3c(c2)N(C(=O)c2csc(-c4ccccc4)n2)CC3)c2cc(-c3cn4nc(OC)sc4n3)oc2c1` [Example 112] yielded an EC50 of 0.55 nM.
With `COc1cccc(C(=O)Nc2cccc(COc3cc(OC)cc4oc(-c5cn6nc(OC)sc6n5)cc34)c2)c1` [Example 160] the EC50 was 36 nM.
In the case of `COc1cc(OCc2cccc(NC(=O)c3cccc(C#N)c3)c2)c2cc(-c3cn4nc(OC)sc4n3)oc2c1` [Example 16], the EC50 is reported as 1.4 nM.
`COc1cc(OCc2cccc3c2CCN3C(=O)c2cc(OC(F)F)cc(C(F)(F)F)c2)c2cc(-c3cn4nc(OC)sc4n3)oc2c1` [Example 130] gave an EC50 of 5.2 nM.
For `COc1cc(OCc2cccc(NC(=O)c3ccc(F)cc3C(F)(F)F)c2)c2cc(-c3cn4nc(OC)sc4n3)oc2c1` [Example 141], the EC50 was 1.9 nM.
`COc1cc(OCc2cccc(NC(=O)c3ccc(C#N)cc3)c2)c2cc(-c3cn4nc(OC)sc4n3)oc2c1` [Example 36] gave an EC50 of 2.5 nM.
In the case of `COc1cc(OCc2cccc3c2CCN3C(C)=O)c2cc(-c3cn4nc(OC)sc4n3)oc2c1` [Example 117], the EC50 is reported as over 3300 nM.
`COc1cc(OCc2ccc3c(c2)N(C(=O)c2ccccc2OC)CC3)c2cc(-c3cn4nc(OC)sc4n3)oc2c1` [Example 103] gave an EC50 of 4.5 nM.
`COc1cc(OCc2cccc(NC(=O)c3ccno3)c2)c2cc(-c3cn4nc(OC)sc4n3)oc2c1` [Example 155] showed an EC50 of 2.3 nM.
Work on `COc1cc(OCc2cccc(NC(=O)c3c(F)cccc3C(F)(F)F)c2)c2cc(-c3cn4nc(OC)sc4n3)oc2c1` [Example 147] yielded an EC50 of 1.6 nM.
`COc1cc(OCc2ccc3c(c2)N(C(=O)c2ccc(OC)nc2)CC3)c2cc(-c3cn4nc(OC)sc4n3)oc2c1` [Example 106] was tested, and the EC50 was 1.5 nM.
`COc1cc(OCc2cccc(NC(=O)COCc3ccccc3)c2)c2cc(-c3cn4nc(OC)sc4n3)oc2c1` [Example 17] gave an EC50 of 0.55 nM.
For `COc1cc(OCc2cccc(NC(=O)C3CCCC3)c2)c2cc(-c3cn4nc(OC)sc4n3)oc2c1` [Example 145], the EC50 was 6.8 nM.
With `COc1cc(OCc2cccc(NC(=O)c3cc(F)cc(C(F)(F)F)c3)c2)c2cc(-c3cn4nc(OC)sc4n3)oc2c1` [Example 142] the EC50 was 1.3 nM.
`COc1cc(OCc2cccc(NC(=O)c3c(OC)cccc3OC)c2)c2cc(-c3cn4nc(OC)sc4n3)oc2c1` [Example 162] gave an EC50 of 11 nM.
`COc1cc(OCc2cccc(NC(=O)Cc3ccccc3)c2)c2cc(-c3cn4nc(OC)sc4n3)oc2c1` [Example 135] showed an EC50 of 5 nM.
`COc1cc(OCc2cccc3c2CCN3C(=O)c2ccc(F)cc2)c2cc(-c3cn4nc(OC)sc4n3)oc2c1` [Example 116] gave an EC50 of 140 nM.
Work on `COc1cc(OCc2cccc(N(C)C(=O)c3ccccc3C)c2)c2cc(-c3cn4nc(OC)sc4n3)oc2c1` [Example 84] yielded an EC50 of 2.5 nM.
In the case of `COc1cc(OCc2cccc(N(C)S(=O)(=O)c3ccccc3)c2)c2cc(-c3cn4nc(OC)sc4n3)oc2c1` [Example 91], the EC50 is reported as 2 nM.
`COc1cc(OCc2cccc(NC(=O)c3ccc(OC)c(C(F)(F)F)c3)c2)c2cc(-c3cn4nc(OC)sc4n3)oc2c1` [Example 157] was tested, and the EC50 was 2.8 nM.
`COc1cc(OCc2cccc(NC(=O)c3ccc(I)cc3)c2)c2cc(-c3cn4nc(OC)sc4n3)oc2c1` [Example 39] gave an EC50 of 2.4 nM.
`COc1cc(OCc2cccc(N(C)C=O)c2)c2cc(-c3cn4nc(OC)sc4n3)oc2c1` [Example 97] was tested, and the EC50 was 2.5 nM.
In the case of `COc1cc(OCc2cccc(NC(=O)c3ccc(F)c(C(F)(F)F)c3)c2)c2cc(-c3cn4nc(OC)sc4n3)oc2c1` [Example 30], the EC50 is reported as 1.8 nM.
Compound `COc1cc(OCc2cccc(NC(=O)c3cc(C)cc(C(F)(F)F)c3)c2)c2cc(-c3cn4nc(OC)sc4n3)oc2c1` [Example 71] has an EC50 of 1.9 nM.
`COc1cc(OCc2cccc(NC(=O)c3cccc(Cl)c3F)c2)c2cc(-c3cn4nc(OC)sc4n3)oc2c1` [Example 151] was tested, and the EC50 was 3.4 nM.
`COc1cc(OCc2cccc(N(C)C(=O)c3ccc(OC)nc3)c2)c2cc(-c3cn4nc(OC)sc4n3)oc2c1` [Example 90] was tested, and the EC50 was 1.1 nM.
`COc1cc(OCc2cccc(NC(=O)c3ccc(Cl)nc3)c2)c2cc(-c3cn4nc(OC)sc4n3)oc2c1` [Example 53] gave an EC50 of 3.5 nM.
Compound `COc1cc(OCc2cccc(NC(=O)c3ccc(Cl)cc3)c2)c2cc(-c3cn4nc(OC)sc4n3)oc2c1` [Example 5, 4-Chloro-N-(3-(((6-methoxy-2-(2-methoxyimidazo[2,1-b][1,3,4]thiadiazol-6-yl)benzofuran-4-yl)oxy)methyl)phenyl)benzamide] has an EC50 of 1.3 nM.
`COc1cc(OCc2cccc(NC(=O)c3ccccc3C(F)(F)F)c2)c2cc(-c3cn4nc(OC)sc4n3)oc2c1` [Example 13] showed an EC50 of 1.9 nM.
Work on `COc1cc(OCc2cccc(NC(=O)Cc3cc(C)no3)c2)c2cc(-c3cn4nc(OC)sc4n3)oc2c1` [Example 47] yielded an EC50 of 6.9 nM.
Work on `COc1cc(OCc2cccc(NC(=O)c3ccc(F)c(F)c3)c2)c2cc(-c3cn4nc(OC)sc4n3)oc2c1` [Example 166] yielded an EC50 of 2.3 nM.
In the case of `COc1cc(OCc2cccc(NC(=O)c3cn4nc(C(C)(F)F)sc4n3)c2)c2cc(-c3cn4nc(OC)sc4n3)oc2c1` [Example 68], the EC50 is reported as 8.9 nM.
`COc1cc(OCc2cccc(NC(=O)C3CCOCC3)c2)c2cc(-c3cn4nc(OC)sc4n3)oc2c1` [Example 165] gave an EC50 of 4.6 nM.
`COc1cc(OCc2cccc3c2CCN3C(=O)c2ccnnc2)c2cc(-c3cn4nc(OC)sc4n3)oc2c1` [Example 128] showed an EC50 of over 3300 nM.
`COc1cc(OCc2cccc(NC(=O)c3cccc(F)c3)c2)c2cc(-c3cn4nc(OC)sc4n3)oc2c1` [Example 28] gave an EC50 of 2 nM.
For `COc1cc(OCc2ccc3c(c2)N(C(=O)c2ccc(C)cc2)CC3)c2cc(-c3cn4nc(OC)sc4n3)oc2c1` [Example 105], the EC50 was 3.4 nM.
`COc1cc(OCc2cccc(NC(=O)COc3ccccc3)c2)c2cc(-c3cn4nc(OC)sc4n3)oc2c1` [Example 35] was tested, and the EC50 was 1 nM.
With `COc1cc(OCc2cccc(NC(=O)c3ccco3)c2)c2cc(-c3cn4nc(OC)sc4n3)oc2c1` [Example 134] the EC50 was 5 nM.
`COc1cc(OCc2cccc3c2CCN3C(=O)c2cc(C)cc(C(F)(F)F)c2)c2cc(-c3cn4nc(OC)sc4n3)oc2c1` [Example 125] gave an EC50 of 3.9 nM.
For `COc1cc(OCc2cccc(NC(=O)c3ccccc3Cl)c2)c2cc(-c3cn4nc(OC)sc4n3)oc2c1` [Example 25], the EC50 was 1.7 nM.
Work on `COc1cc(OCc2cccc(NC(=O)c3c(C)noc3-c3ccccc3)c2)c2cc(-c3cn4nc(OC)sc4n3)oc2c1` [Example 59] yielded an EC50 of 3.5 nM.
Work on `COc1cc(OCc2cccc(NC(=O)c3cccc(N(C)C)c3)c2)c2cc(-c3cn4nc(OC)sc4n3)oc2c1` [Example 144] yielded an EC50 of 3.8 nM.
With `COc1cc(OCc2cccc(NC(=O)c3cc(C(F)(F)F)ccc3C(F)(F)F)c2)c2cc(-c3cn4nc(OC)sc4n3)oc2c1` [Example 9] the EC50 was 2 nM.
In the case of `COc1cc(OCc2cccc(NC(=O)c3ccc(Br)cn3)c2)c2cc(-c3cn4nc(OC)sc4n3)oc2c1` [Example 65], the EC50 is reported as 1.1 nM.
Compound `COc1cc(OCc2cccc(NC(=O)c3cccc(Cl)c3)c2)c2cc(-c3cn4nc(OC)sc4n3)oc2c1` [Example 11] has an EC50 of 1.7 nM.
For `COc1cc(OCc2cccc(NC(=O)c3ccnc(O)c3)c2)c2cc(-c3cn4nc(OC)sc4n3)oc2c1` [Example 56], the EC50 was 5.5 nM.
In the case of `COc1cc(OCc2cccc(N(C)C(=O)c3ccccc3OC)c2)c2cc(-c3cn4nc(OC)sc4n3)oc2c1` [Example 86], the EC50 is reported as 1.8 nM.
`COc1cc(OCc2cccc(NC(=O)c3csc(-c4ccccc4)n3)c2)c2cc(-c3cn4nc(OC)sc4n3)oc2c1` [Example 72] gave an EC50 of 2.2 nM.
